How the values were obtained:
telomerase [1] = experiment: Telomerase reaction carried out first, then PCR of the diluted reaction solution, gel electrophoresis, with or without λDNA; format: biochemical; conditions: final concentrations 0.1 to 10 μM
Method: (§1) Moreover, effects of inhibiting telomerase by TMPyP and anionic phthalocyanines were compared in Comparative Example 3 and Example 4 to 5 below. In these experiments, the S7700 kit was used similarly to the aforementioned Comparative Examples 1 to 2 and Examples 1 to 3. However, in Comparative Examples 1 to 2 and Examples 1 to 3 described above, the reagents required only for the telomerase reaction and PCR were all mixed first, and the telomerase reaction and PCR were carried out sequentially by regulating the reaction temperature. To the contrary, in the following Comparative Example 3 and Examples 4 to 5, only the reagents required for the telomerase reaction were first mixed to carry out a telomerase reaction, and a part of the reaction solution and the reagents required for the PCR were mixed to carry out the PCR.
In addition, in each of the following Comparative Example 3 and Examples 4 to 5, experiments were carried out with or without addition of a λDNA in the telomerase reaction. Addition of the λDNA was intended to reproduce for mimicking the conditions in which a large amount of double-stranded DNAs are present as in the case of genomic DNAs in cells, and to study the effects of inhibiting telomerase by TMPyP or anionic phthalocyanines even under conditions more approximate to those in vivo, by adding a λDNA.
Telomerase reaction solution in a total volume of 10 μL were prepared by mixing 1 μL of 10× TRAP Reaction buffer, 0.2 μL of 50× dNTP Mix, 0.2 μL of TS primer, 4 μL of the telomerase solution prepared in Comparative Example 1, 2 μL of the TMPyP aqueous solution, and 2.6 μL of milliQ water (the reaction solutions having final TMPyP concentrations of 0 M, 0.1 μM, 0.3 μM, 1 μM, 3 μM and 10 μM were prepared, respectively). Then, the reaction solutions were stood under a condition of 30° C. for 60 min to allow a telomerase reaction to be carried out.
(§2) Next, 4 μL of a solution prepared by diluting the solution after the telomerase reaction 20 times with milliQ water, 0.2 μL of 50× dNTP Mix, 0.2 μL of TS primer, 0.2 μL of Primer Mix, 0.1 μL of TaKaLa LA Taq Hot Start Version (manufactured by Takara Bio Inc.), 1 μL of 10× LA PCR buffer II (Mg^2+ plus) (buffer solution included in TaKaLa LA Taq Hot Start Version), and 4.3 μL of milliQ water were mixed to prepare a PCR solution in a total volume of 10 μL. Then, PCR was carried out by allowing this PCR solution to stand under temperature conditions in which a thermo cycle of: 30 sec at 95° C.; 30 sec at 59° C.; and 30 sec at 72° C. was repeated 30 times.
(§3) Finally, the solution after the PCR was electrophoresed on a 10% polyacrylamide gel, and stained with GelStar Nucleic Acid Stain (manufactured by Takara Bio Inc.). […] In the order from the leftmost lane, the results with final concentrations of TMPyP being 0 M, 0.1 μM, 0.3 μM, 1 μM, 3 μM and 10 μM are shown.
On the other hand, experiments in which a λDNA was added to the telomerase reaction solution were also carried out. More specifically, in preparing the telomerase reaction solution described above, 2.6 μL of a λDNA solution (manufactured by Takara Bio Inc.) was mixed in place of mixing 2.6 μL of milliQ water. Other telomerase reaction temperature/time schedule, PCR solution preparation condition, PCR temperature/time schedule, electrophoresis condition were just the same.

[2] = tested on: TaKaLa LA Taq Hot Start Version (polymerase reaction); experiment: PCR control band in the separate telomerase reaction / PCR experiment; format: biochemical; conditions: 10 μM, no addition of λDNA
Method: as §1, §2, §3

telomerase [3] = experiment: Telomerase activity measurement with S7700 kit, telomerase reaction and PCR carried out sequentially in one mix, ladder peaks by Bioanalyzer 2100; format: biochemical; conditions: 1.1 μM of TMPyP added
Method: In this experiment, comparative studies of effects of inhibiting telomerase by an anionic phthalocyanine and cationic porphyrin (TMPyP) that is a conventionally known typical material having an effect of inhibiting telomerase were carried out using a kit for telomerase activity measurement manufactured by Millipore Corporation (TRAPEZE Telomeraze Detection Kit S7700).
TRAPEZE Telomeraze Detection Kit S7700 (hereinafter, merely referred to as S7700 kit) is a kit that includes 10× TRAP Reaction buffer, 50× dNTPs Mix, TS primer, Primer Mix, and a control cell pellet.
The TS primer is an oligo DNA consisting of 5′-[sequence]-3′, and serves as an initiation sequence of the telomerase reaction upon binding of telomerase, similarly to a human telomeric DNA sequence.
Therefore, the Primer Mix in the S7700 kit includes RP primer. This primer is an oligo DNA having a sequence complementary to the sequence elongated by the telomerase reaction, and thus, the telomerase reaction product can be amplified to a detectable level on electrophoresis by carrying out PCR using the aforementioned TS primer and the RP primer.
As described above, the telomerase reaction and PCR are carried out sequentially in the telomerase activity measurement using the S7700 kit. […]

TITANIUM Taq polymerase = experiment: PCR control (36-bp PCR amplification product) in S7700 kit one-mix reaction, Bioanalyzer 2100; format: biochemical; conditions: TMPyP concentration not less than 3 μM
Method: Therefore, TITANIUM […] polymerase (manufactured by Clontech Laboratories) was used in the present studies.
For example, it is highly probable that materials which nonspecifically bind to double-stranded DNAs inhibit PCR.
The S7700 kit includes a set of a template DNA and a primer for such ascertainment in the Primer Mix, and a 36-bp PCR amplification product is obtained from the set when the PCR is carried out.
Therefore, when the effect of a material expected to inhibit the telomerase reaction is verified using the S7700 kit, it is necessary to confirm that the telomerase reaction product is not detected in final results of electrophoresis, and that the 36-bp PCR product is normally amplified.
First, in accordance with the protocol of the kit, a telomerase solution was prepared from the attached control cell pellet. Next, a reaction solution in a total volume of 20 μL was prepared by mixing 2 μL of 10× TRAP Reaction buffer, 0.4 μL of 50× dNTP Mix, 0.4 μL of TS primer, 0.4 μL of Primer Mix, 0.4 μL of TITANIUM Taq polymerase, 14.8 μL of milliQ water (purified water), and 1.6 μL of the telomerase solution prepared as described above.
Subsequently, the telomerase reaction was allowed by standing this reaction solution under a condition of 30° C. for 30 min. Thereafter, PCR was carried out by repeating 33 times a thermo cycle of: 30 sec at 94° C.; 30 sec at 59° C.; and 1 min at 72° C. […]

[4] = tested on: G-quadruplex structure (human telomeric oligo DNA); experiment: Absorbance 480 to 800 nm of phthalocyanine mixed with G-quadruplex solutions; format: binding; conditions: for interaction with the G-quadruplex structure (absorption peak): 15 μM compound solution, 50 mM HEPES, 100 mM NaCl, pH7
Method: Hereinafter, the interaction between anionic phthalocyanines and various DNAs was studied in Examples 6, 7, 8 and 9. For this purpose, a solution containing a G-quadruplex structure, a solution including a single-stranded DNA, and a solution containing a double-stranded DNA were first prepared according to the following procedures.
A solution of 50 mM HEPES and 100 mM NaCl, pH7 (total volume: 100 μL) containing a single-stranded DNA consisting of a sequence of 5′-[…]-3′ (SEQ ID NO: 2; this sequence being similar to a sequence of a human telomere portion, and thus the DNA referred to as “human telomeric oligo DNA” hereafter) was incubated at 90° C. for 5 min, and thereafter cooled to 0° C. at a rate of temperature fall of 2° C./min, followed by finally incubating at 0° C. for 2 hrs.
The concentrations of the human telomeric oligo DNA contained in the solution were 0, 0.5, 2, 5, 10, 25, 50 and 100 μM.
The absolute values of the positive and negative peaks were maximized for the solution having the human telomeric oligo DNA concentration of 100 μM, and dropped in the order of 50, 25, 10, 5, 2 and 0.5 μM. […] Hereafter, G-quadruplex solutions prepared from the solutions having human telomeric oligo DNA concentrations of 100, 50, 25, 10, 5, 2 and 0.5 μM are referred to as G-quadruplex solutions A, B, C, D, E, F and G, respectively. On the other hand, the solution without the human telomeric oligo DNA contained therein is referred to as NC solution.
First, a solution of 50 mM HEPES and 100 mM NaCl, pH7 (total volume: 20 μL) containing 15 μM CuPC was prepared. Then, this CuPC solution was mixed with each of the G-quadruplex solutions C, D, E and F and the NC solution, and the absorbance of these liquid mixtures were measured at 480 to 800 nm.
First, a solution of 50 mM HEPES and 100 mM NaCl, pH7 (total volume: 20 μL) containing 15 μM NiPC was prepared. Then, this NiPC solution was mixed with each of the G-quadruplex solutions D, E, F and G, and the NC solution, and the absorbance of these liquid mixtures were measured at 480 to 800 nm.
First, a solution of 50 mM HEPES and 100 mM NaCl, pH7 (total volume: 20 μL) containing 15 μM PC was prepared. Then, this PC solution was mixed with each of the G-quadruplex solutions D, E, F and G, and the NC solution, and the absorbance of these liquid mixtures were measured at 480 to 800 nm.
First, a solution of 50 mM HEPES and 100 mM NaCl, pH7 (total volume: 20 μL) containing 15 μM CoPC was prepared. Then, this CoPC solution was mixed with each of the G-quadruplex solutions B, C, D and G, and the NC solution, and the absorbance of these liquid mixtures were measured at 480 to 800 nm.

double-stranded DNA = experiment: Absorbance 480 to 800 nm of phthalocyanine mixed with double-stranded DNA solution; format: binding; conditions: 15 μM compound solution, DNA 50 μM, pH7
Method: A solution of 50 mM HEPES and 100 mM NaCl, pH7 (total volume: 100 μL) containing a single-stranded DNA consisting of a sequence of 5′-AGAAGAGAAAGA-3′ (SEQ ID NO: 4) and a single-stranded DNA consisting of a sequence of 5′-TCTTTCTCTTCT-3′ (SEQ ID NO: 5) at each concentration of 50 μM was prepared, which was incubated at 90° C. for 5 min, and thereafter cooled to 0° C. at a rate of temperature fall of 2° C./min, followed by finally incubating at 0° C. for 2 hrs. Since the aforementioned two kinds of DNAs are complementary to one another, both DNAs form a double-stranded DNA in the solution as a result of the incubation (hereafter, the solution referred to as “double-stranded DNA solution”).
(§4) Next, the aforementioned CuPC solution and single-stranded DNA solution, and the aforementioned CuPC solution and double-stranded DNA solution were similarly mixed, respectively. And then the absorbance of these liquid mixtures was measured at 480 to 800 nm. FIG. 9(A) and FIG. 9(B) show the results of the measurement in the cases of the single-stranded DNA solution and the double-stranded DNA solution, respectively.
as §4, with “NiPC” for “CuPC”, “respectively;” for “respectively. And then”, “11(A)” for “9(A)”, “11(B)” for “9(B)”, “respectively. In each drawing, the result obtained when the NC solution was used is also shown together.” for “respectively.”
as §4, with “PC” for “CuPC”, “respectively;” for “respectively. And then”, “mixture” for “mixtures”, “13(A)” for “9(A)”, “13(B)” for “9(B)”, “respectively. In each drawing, the result obtained when the NC solution was used is also shown together.” for “respectively.”
as §4, with “CoPC” for “CuPC”, “respectively, and” for “respectively. And”, “15(A)” for “9(A)”, “15(B)” for “9(B)”, “respectively. In each drawing, the result obtained when the NC solution was used is also shown together.” for “respectively.”

single-stranded DNA = experiment: Absorbance 480 to 800 nm of phthalocyanine mixed with single-stranded DNA solution; format: binding; conditions: 15 μM compound solution, DNA 50 μM, pH7
Method: A solution of 50 mM HEPES and 100 mM NaCl, pH7 (total volume: 100 μL) containing a single-stranded DNA consisting of a sequence of 5′-[…]-3′ sequence (SEQ ID NO: 3) at a concentration of 50 μM was prepared, which was incubated at 90° C. for 5 min, and thereafter cooled to 0° C. at a rate of temperature fall of 2° C./min, followed by finally incubating at 0° C. for 2 hrs. The DNA in thus resulting solution was a single-stranded DNA even after the incubation (hereafter, the solution referred to as “single-stranded DNA solution”).
as §4
as §4, with “NiPC” for “CuPC”, “respectively;” for “respectively. And then”, “11(A)” for “9(A)”, “11(B)” for “9(B)”, “respectively. In each drawing, the result obtained when the NC solution was used is also shown together.” for “respectively.”
as §4, with “PC” for “CuPC”, “respectively;” for “respectively. And then”, “mixture” for “mixtures”, “13(A)” for “9(A)”, “13(B)” for “9(B)”, “respectively. In each drawing, the result obtained when the NC solution was used is also shown together.” for “respectively.”
as §4, with “CoPC” for “CuPC”, “respectively, and” for “respectively. And”, “15(A)” for “9(A)”, “15(B)” for “9(B)”, “respectively. In each drawing, the result obtained when the NC solution was used is also shown together.” for “respectively.”

Row | Compound | inhibition of the telomerase reaction (band of telomerase reaction product) (telomerase [1]; in the presence of λDNA) | inhibition of the telomerase reaction (band of telomerase reaction product) (telomerase [1]; no addition of λDNA) | amplification of the PCR control (band) [2] | total DNA concentration corresponding to the ladder peaks in the reaction product (telomerase [3]) [ng/µL] | DNA concentration corresponding to the PCR control peak (TITANIUM Taq polymerase) | interaction with the G-quadruplex structure (absorption peak) [4] | elevation of the peaks in the range of 640 to 720 nm with G-quadruplex ([4]; compared with CuPC, NiPC or PC) | interaction with the double-stranded DNA (absorption spectrum vs NC solution) (double-stranded DNA) | interaction with the single-stranded DNA (absorption spectrum vs NC solution) (single-stranded DNA)
1 | C[n+]1ccc(-c2c3nc(c(-c4cc[n+](C)cc4)c4ccc([nH]4)c(-c4cc[n+](C)cc4)c4nc(c(-c5cc[n+](C)cc5)c5ccc2[nH]5)C=C4)C=C3)cc1 [TMPyP, reference compound] | not inhibited at all | inhibited the telomerase reaction | became weaker | 2.7 | not beyond the detection limit |  |  |  | 
2 | Cobalt(II) phthalocyanine tetracarboxylic acid [CoPC] |  |  |  |  |  | an interaction occurred | less than the resultant elevation when CuPC, NiPC or PC was used | an interaction did not occur | an interaction did not occur
3 | Phthalocyanine tetrasulfonic acid [PC] |  |  |  |  |  | an interaction occurred |  | an interaction did not occur | an interaction did not occur
4 | Zinc(II) phthalocyanine tetrasulfonic acid [ZnPC] |  |  |  |  |  | specifically interacted with a G-quadruplex structure |  |  | 
